Earlier results in patent US6951877B2, “Materials and methods for treating hypercholesterolemia” (ARYx Therapeutics, Inc., priority 2002, dated 2005).
Where two headings read alike, the source gives them in different places.

Key:
patients [1] = test system: patients
patients [2] = test system: patients; remark: listed apart in the source
[3] = test system: asymptomatic, middle-aged men with primary hypercholesterolemia

COCc1c(C(C)C)nc(C(C)C)c(/C=C/[C@@H](O)C[C@@H](O)CC(=O)O)c1-c1ccc(F)cc1 [cerivastatin]
U.S. deaths due to severe rhabdomyolysis reported to FDA (patients [1]; all reports associated with use of cerivastatin): 31 | U.S. deaths due to severe rhabdomyolysis reported to FDA (patients [1]; concomitant gemfibrozil use): 12

CC(C)c1c(C(=O)Nc2ccccc2)c(-c2ccccc2)c(-c2ccc(F)cc2)n1CC[C@@H](O)C[C@@H](O)CC(=O)O [atorvastatin]
patients with elevated liver enzymes (patients [2]; 40 mg): 0.6% | patients with elevated liver enzymes (patients [2]; 80 mg): 2.3% | patients with elevated liver enzymes (patients [2]; doses of 10 or 20 mg): 0.2%

Cc1ccc(C)c(OCCCC(C)(C)C(=O)O)c1 [gemfibrozil]
reduction in CHD risk ([3]; over the 5-year follow-up period): 34% | HDL cholesterol ([3]; treatment with gemfibrozil): increased HDL cholesterol | LDL cholesterol ([3]; treatment with gemfibrozil): lowered LDL, cholesterol
